{"source": "patent US20080145499A1", "about": "“Method for treating fruit or vegetables with phosphorous ions and corresponding compositions” (priority 2006, published 2008)", "key": {"P. expansum": {"system": "P. expansum", "assay": "Natural P. expansum infections in organic Elstar apples", "assay_type": "in vivo", "source_text": "2—In vivo Study of the Activity of Phosphonic Acid (Kphos) on P. expansum Infections in Apples"}, "[1]": {"system": "strain of Penicillium digitatum resistant to imazalil", "assay": "Valencia oranges inoculated with Penicillium digitatum resistant to imazalil", "assay_type": "in vivo", "conditions": "52° C., 2 minutes", "method": "Valencia oranges inoculated with a strain of Penicillium digitatum resistant to imazalil were treated at 52° C. and were in contact for 2 minutes with: • 300 ppm imazalil; • 3,000 ppm potassium phosphite • the two products mixed in proportions of 300 ppm imazalil and 3,000 ppm potassium phosphite."}, "P. expansum spores": {"system": "P. expansum spores", "source_text": "1—In vitro Study of the Activity of Phosphonic Acid on P. expansum"}, "P. Digitatum [2]": {"system": "P. Digitatum", "assay": "Navel oranges damaged and inoculated with P. digitatum, PA with Bioxeda and thermotherapy", "assay_type": "in vivo", "conditions": "18 days, 48° C. 2 min", "method": "3—Efficacy of PA and Thermotherapy on P. digitatum Infections in Oranges\nIn this experiment, the oranges were damaged then inoculated with P. Digitatum (500,000 sp/mL) and treated 15 hours later; they were stored at 5° C."}, "P. Digitatum [3]": {"system": "P. Digitatum", "assay": "Natural P. digitatum infections in Navel oranges, comparison with three fungicides", "assay_type": "in vivo", "conditions": "Thermotherapy + phosphonic acid 2,000 ppm; SPC 3 days at ambient temperature", "source_text": "4—Efficacy of PA on P. digitatum Infections in Oranges. Comparison with a Mixture of Three Fungicides. All Treatments Were Combined with Thermotherapy"}, "P. Digitatum [4]": {"system": "P. Digitatum", "method": "5—Efficacy of PA on Natural P. digitatum Infections in Oranges Combined with Thermotherapy\n(§1) A new experiment which took place under conditions very similar to those in real life was carried out: natural infections, storage in cold conditions, simulation of storage periods (SPC)."}, "oranges": {"system": "oranges", "conditions": "PA up to 4,000 ppm, with thermotherapy", "method": "as §1"}, "Penicillium digitatum": {"system": "Penicillium digitatum", "assay": "Washington oranges inoculated with Penicillium digitatum, eugenol/potassium phosphite", "assay_type": "in vivo", "method": "Washington oranges inoculated with Penicillium digitatum came into contact with a eugenol/potassium phosphite solution containing 1,100 ppm of eugenol and 1,600 ppm of potassium phosphite for 2 minutes at 38° C. and 48° C. The treated fruit was kept at 7° C. and then examined after 9 and 18 days. The fruit was compared with fruit treated with only eugenol in the same conditions and with inoculated fruits that had not been treated."}, "[5]": {"conditions": "3,000 ppm potassium phosphite, tests 1-4"}}, "note": "Where “and” joins values, the source holds several entries; their conditions need not be identical. Identical values can stand only once. Like-named read-outs stand apart in the source and are kept apart here."}
{"compound": "N#Cc1c[nH]cc1-c1cccc2c1OC(F)(F)O2", "note": "[Fluidoxonil]", "values": [{"measurement": "% apples with symptoms", "setting": "P. expansum; 200 ppm, 2001-2002, 90 days", "result": 1.1, "unit": "%"}, {"measurement": "% apples with symptoms", "setting": "P. expansum; 200 ppm, 2001-2002, 180 days", "result": 4.9, "unit": "%"}, {"measurement": "% apples with symptoms", "setting": "P. expansum; 200 ppm, 2002-2003, 90 days", "result": 4.0, "unit": "%"}, {"measurement": "% apples with symptoms", "setting": "P. expansum; 200 ppm, 2002-2003, 180 days", "result": 7.0, "unit": "%"}]}
{"compound": "C=CCOC(Cn1ccnc1)c1ccc(Cl)cc1Cl", "note": "(stereo not shown) [Imazalil, imazalil, reference compound]", "values": [{"measurement": "Average % of decayed fruit", "setting": "[1]; 300 ppm imazalil", "result": 42.5, "unit": "%"}]}
{"compound": "O=[PH](O)O", "note": "[PA, Phosphonic acid]", "values": [{"measurement": "Germinated spores", "setting": "P. expansum spores; 1,000 ppm (Kphos), 22° C., 24 hours", "result": 27}, {"measurement": "Germinated spores", "setting": "P. expansum spores; 1,000 ppm (Kphos), 22° C., 48 hours", "result": 34}, {"measurement": "Germinated spores", "setting": "P. expansum spores; 1,000 ppm (Kphos), 50° 2 min, 24 hours", "result": 0}, {"measurement": "Germinated spores", "setting": "P. expansum spores; 1,000 ppm (Kphos), 50° 2 min, 48 hours", "result": 21}, {"measurement": "Germinated spores", "setting": "P. expansum spores; 4,000 ppm (Kphos), 22° C., 24 hours", "result": 11}, {"measurement": "Germinated spores", "setting": "P. expansum spores; 4,000 ppm (Kphos), 22° C., 48 hours", "result": 11}, {"measurement": "Germinated spores", "setting": "P. expansum spores; 4,000 ppm (Kphos), 50° 2 min, 24 hours", "result": 0}, {"measurement": "Germinated spores", "setting": "P. expansum spores; 4,000 ppm (Kphos), 50° 2 min, 48 hours", "result": 0}, {"measurement": "activity of PA", "setting": "P. expansum spores; ambient temperature, even at 4,000 ppm", "result": "partial"}, {"measurement": "% apples with symptoms", "setting": "P. expansum; 1,000 ppm - 50° C. 2 min, 2001-2002, 90 days", "result": 0.0, "unit": "%"}, {"measurement": "% apples with symptoms", "setting": "P. expansum; 1,000 ppm - 50° C. 2 min, 2001-2002, 180 days", "result": 4.7, "unit": "%"}, {"measurement": "% apples with symptoms", "setting": "P. expansum; 1,000 ppm - 50° C. 2 min, 2002-2003, 90 days", "result": 0.0, "unit": "%"}, {"measurement": "% apples with symptoms", "setting": "P. expansum; 1,000 ppm - 50° C. 2 min, 2002-2003, 180 days", "result": 6.3, "unit": "%"}, {"measurement": "% apples with symptoms", "setting": "P. expansum; 1,000 ppm, 2001-2002, 90 days after treatment, 2° C.", "result": 3.1, "unit": "%"}, {"measurement": "% apples with symptoms", "setting": "P. expansum; 1,000 ppm, 2001-2002, 180 days after treatment, 2° C.", "result": 13.1, "unit": "%"}, {"measurement": "% apples with symptoms", "setting": "P. expansum; 1,000 ppm, 2002-2003, 90 days after treatment, 2° C.", "result": 4.9, "unit": "%"}, {"measurement": "% apples with symptoms", "setting": "P. expansum; 1,000 ppm, 2002-2003, 180 days after treatment, 2° C.", "result": 11.1, "unit": "%"}, {"measurement": "activity in vivo", "setting": "P. expansum; PA at ambient temperature on P. expansum in apples", "result": "~0"}, {"measurement": "rate of decay, times lower in the presence of PA", "setting": "P. Digitatum [2]; Bioxeda + PA versus Bioxeda", "result": 2.3, "unit": "times"}, {"measurement": "Oranges with symptoms", "setting": "P. Digitatum [2]; eugenol 1.8 g/L + PA 1,000 ppm (Kphos), stored at 5° C.", "result": 26, "unit": "%"}, {"measurement": "Oranges with symptoms 12 D 5 0C = 3 D SPC (1)", "setting": "P. Digitatum [3]", "result": 0.5}, {"measurement": "% oranges with symptoms 15 D 5° C. + 5 D SPC", "setting": "P. Digitatum [4]; 2,000 ppm, no thermotherapy", "result": 6.0, "unit": "%"}, {"measurement": "efficacy", "setting": "P. Digitatum [4]; 4,000 ppm combined with thermotherapy", "result": 73.5, "unit": "%"}, {"measurement": "% oranges with symptoms 15 D 5° C. + 5 D SPC", "setting": "P. Digitatum [4]; 4,000 ppm, no thermotherapy", "result": 5.1, "unit": "%"}, {"measurement": "% oranges with symptoms 15 D 5° C. + 5 D SPC", "setting": "P. Digitatum [4]; Thermotherapy (50° C. 3 min) + 2,000 ppm", "result": 4.0, "unit": "%"}, {"measurement": "% oranges with symptoms 15 D 5° C. + 5 D SPC", "setting": "P. Digitatum [4]; Thermotherapy (50° C. 3 min) + 4,000 ppm", "result": 2.7, "unit": "%"}, {"measurement": "phytotoxicity", "setting": "oranges", "result": "No phytotoxicity"}]}
{"compound": "Cc1cc(C)nc(Nc2ccccc2)n1", "note": "[Pyrimethanil]", "values": [{"measurement": "% apples with symptoms", "setting": "P. expansum; 250 ppm, 2001-2002, 90 days", "result": 4.1, "unit": "%"}, {"measurement": "% apples with symptoms", "setting": "P. expansum; 250 ppm, 2001-2002, 180 days", "result": 16.2, "unit": "%"}, {"measurement": "% apples with symptoms", "setting": "P. expansum; 250 ppm, 2002-2003, 90 days", "result": 4.0, "unit": "%"}, {"measurement": "% apples with symptoms", "setting": "P. expansum; 250 ppm, 2002-2003, 180 days", "result": 19.0, "unit": "%"}, {"measurement": "% apples with symptoms", "setting": "P. expansum; 500 ppm, 2001-2002, 90 days", "result": 3.2, "unit": "%"}, {"measurement": "% apples with symptoms", "setting": "P. expansum; 500 ppm, 2001-2002, 180 days", "result": 21.3, "unit": "%"}, {"measurement": "% apples with symptoms", "setting": "P. expansum; 500 ppm, 2002-2003, 90 days", "result": 0.0, "unit": "%"}, {"measurement": "% apples with symptoms", "setting": "P. expansum; 500 ppm, 2002-2003, 180 days", "result": 14.0, "unit": "%"}]}
{"compound": "C=CCc1ccc(O)c(OC)c1", "note": "[eugenol, reference compound]", "values": [{"measurement": "percentages of decayed fruit", "setting": "Penicillium digitatum; eugenol 1,100 ppm, 2 minutes at 38° C., kept at 7° C., after 9 days", "result": 12, "unit": "%"}, {"measurement": "percentages of decayed fruit", "setting": "Penicillium digitatum; eugenol 1,100 ppm, 2 minutes at 38° C., kept at 7° C., after 18 days", "result": 73, "unit": "%"}, {"measurement": "percentages of decayed fruit", "setting": "Penicillium digitatum; eugenol 1,100 ppm, 2 minutes at 48° C., kept at 7° C., after 9 days", "result": 4, "unit": "%"}, {"measurement": "percentages of decayed fruit", "setting": "Penicillium digitatum; eugenol 1,100 ppm, 2 minutes at 48° C., kept at 7° C., after 18 days", "result": 60, "unit": "%"}]}
{"compound": "potassium phosphite", "values": [{"measurement": "percentages of decayed fruit", "setting": "Penicillium digitatum; potassium phosphite, 38° C., after 9 days", "result": 14, "unit": "%"}, {"measurement": "percentages of decayed fruit", "setting": "Penicillium digitatum; potassium phosphite, 38° C., after 18 days", "result": 76, "unit": "%"}, {"measurement": "percentages of decayed fruit", "setting": "Penicillium digitatum; potassium phosphite, 48° C., after 9 days", "result": 3, "unit": "%"}, {"measurement": "percentages of decayed fruit", "setting": "Penicillium digitatum; potassium phosphite, 48° C., after 18 days", "result": 44, "unit": "%"}, {"measurement": "Average % of decayed fruit", "setting": "[1]; 3,000 ppm potassium phosphite", "result": 42.5, "unit": "%"}, {"measurement": "% of decayed fruit", "setting": "[1]; [5]", "result": "50% and 60% and 30%"}, {"measurement": "Number of fruit decayed", "setting": "[1]; [5]", "result": "5 and 6 and 3"}, {"measurement": "Number of fruit unaffected", "setting": "[1]; [5]", "result": "5 and 4 and 7"}]}
